The values that follow come from US10961202B2, “Bis-benzimidazole compounds and methods of using the same” (THE SCRIPPS RESEARCH INSTITUTE, priority 2017, dated 2021).

Assay [1] relates to r(CUG)12-MBNL1 complex. In words: Inhibition of the r(CUG)12-MBNL1 complex measured by TR-FRET. The conditions noted are these: 80 nM RNA, 60 nM MBNL1-His6. Format: biochemical. For orientation: Time-resolved FRET reads energy transfer from a long-lived donor to a nearby acceptor.
For assay [2], the system named is MBNL1 exon 5 inclusion in DM1 myotubes. The assay can be described thus: Myotube splicing rescue assay (MBNL1 exon 5 inclusion). Format: cell-based, human. Conditions: 48-hour incubation.

As to `CN(C)CCNC(=O)c1ccc2nc(-c3ccc(-c4nc5ccc(C(=O)NCCN(C)C)cc5[nH]4)cc3)[nH]c2c1` [Compound 16, 2,2′-(1,4-phenylene)bis(N-(2-(dimethylamino)ethyl)-1H-benzo[d]imidazole-6-carboxamide)], the midpoint of inhibition in assay [1] (Table L), the IC50, lay at 6.2 µM. For the same molecule, the “MBNL1 % splicing rescue at 10 μM” value in assay [2] is reported as −4.3%.

Regarding `CCN(CC)CCNC(=O)c1ccc2nc(-c3ccc(-c4nc5ccc(C(=O)NCCN(CC)CC)cc5[nH]4)cc3)[nH]c2c1` [Compound 33], half-maximal inhibition in assay [1] (Table L) (IC50) required 8.1 µM. In addition, the “MBNL1 % splicing rescue at 10 μM” value in assay [2] worked out at 16.4%.

Molecule `CC(C)N(CCNC(=O)c1ccc2nc(-c3ccc(-c4nc5ccc(C(=O)NCCN(C(C)C)C(C)C)cc5[nH]4)cc3)[nH]c2c1)C(C)C` [Compound 34] displayed a 50% inhibitory concentration (IC50) in assay [1] (Table L) of 14.5 µM. Further, in assay [2], the “MBNL1 % splicing rescue at 1 μM” value is listed as 20.8%.

`N=C(N)NCCNC(=O)c1ccc2nc(-c3ccc(-c4nc5ccc(C(=O)NCCNC(=N)N)cc5[nH]4)cc3)[nH]c2c1` [Compound 38] gave a half-inhibitory concentration (IC50) in assay [1] (Table L) of 2.6 µM. Further, the “MBNL1 % splicing rescue at 10 μM” value in assay [2] is 0.0%.

In turn, `O=C(NCCN1CCCCC1)c1ccc2nc(-c3ccc(-c4nc5ccc(C(=O)NCCN6CCCCC6)cc5[nH]4)cc3)[nH]c2c1` [Compound 41, 2,2′-(1,4-phenylene)bis(N-(2-(piperidin-1-yl)ethyl)-1H-benzo[d]imidazole-6-carboxamide)] yielded a half-maximal inhibitory concentration (IC50) in assay [1] (Table L) of 6.6 µM. In assay [2], the “MBNL1 % splicing rescue at 1 μM” value worked out at 43.7% and the “MBNL1 % splicing rescue at 10 μM” value is listed as 59.1%.

For `CN1CCN(CCNC(=O)c2ccc3nc(-c4ccc(-c5nc6ccc(C(=O)NCCN7CCCCC7)cc6[nH]5)cc4)[nH]c3c2)CC1` [Compound 44, N-(2-(4-methylpiperazin-1-yl)ethyl)-2-(4-(6-((2-(piperidin-1-yl)ethyl)carbamoyl)-1H-benzo[d]imidazol-2-yl)phenyl)-1H-benzo[d]imidazole-6-carboxamide], in assay [1] (Table L), the IC50 was 11.9 µM. In addition, in assay [2], the “MBNL1 % splicing rescue at 1 μM” value came out at 6.1% and the “MBNL1 % splicing rescue at 10 μM” value amounted to 16.4%.

As to `O=C(NCCN1CCNCC1)c1ccc2nc(-c3ccc(-c4nc5ccc(C(=O)NCCN6CCNCC6)cc5[nH]4)cc3)[nH]c2c1` [Compound 47, 2,2′-(1,4-phenylene)bis(N-(2-(piperazin-1-yl)ethyl)-1H-benzo[d]imidazole-6-carboxamide)], it took 6.8 µM to reach half-maximal inhibition in assay [1] (Table L) (IC50). In addition, the “MBNL1 % splicing rescue at 10 μM” value in assay [2] is 12.8%.

Regarding `C[N+](C)(C)CCOC(=O)c1ccc2nc(-c3ccc(-c4nc5ccc(C(=O)OCC[N+](C)(C)C)cc5[nH]4)cc3)[nH]c2c1` [Compound 55, 2,2′-((2,2′-(1,4-phenylene)bis(1H-benzo[d]imidazole-6,6′-carbonyl))bis(oxy))bis(N,N,N-trimethylethanaminium) chloride], the IC50 in assay [1] (Table L) came out at 4.2 µM. Besides, the “MBNL1 % splicing rescue at 10 μM” value in assay [2] is listed as 12.0%.

For the molecule `CN(C)CCSc1ccc2nc(-c3ccc(-c4nc5ccc(SCCN(C)C)cc5[nH]4)cc3)[nH]c2c1` [Compound 59, 2,2′-((2,2′-(1,4-phenylene)bis(1H-benzo[d]imidazole-6,2-diyl))bis(sulfanediyl))bis(N,N-dimethylethanamine)], half-maximal inhibition in assay [1] (Table L) (IC50) was put at 10.8 µM. Further, the “MBNL1 % splicing rescue at 10 μM” value in assay [2] is reported as −17.6%.

Consider `N=C(N)NCCC(=O)Nc1ccc2nc(-c3ccc(-c4nc5ccc(NC(=O)CCNC(=N)N)cc5[nH]4)cc3)[nH]c2c1` [Compound 65], for which the concentration for half-maximal inhibition (IC50) in assay [1] (Table L) worked out at 3.6 µM. Moreover, the “MBNL1 % splicing rescue at 1 μM” value in assay [2] was 31.7%.

Take `c1cc2nc(-c3ccc(-c4nc5ccc(NC6=NCCN6C6=NCCN6)cc5[nH]4)cc3)[nH]c2cc1NC1=NCCN1C1=NCCN1` [Compound 77]: the half-inhibitory concentration (IC50) in assay [1] (Table L) is 10.8 µM. For the same molecule, the “MBNL1 % splicing rescue at 10 μM” value in assay [2] was determined as 4.2%.

In the case of `CCN(CC)CCNC(=O)c1ccc(-c2nc3cc(-c4ccc5[nH]c(-c6ccc(C(=O)NCCN(CC)CC)cc6)nc5c4)ccc3[nH]2)cc1` [Compound 112], the IC50 in assay [1] (Table L) was 5 µM. Also, the “MBNL1 % splicing rescue at 10 μM” value in assay [2] was 66.5%.

Consider `CC(C)N(CCNC(=O)c1ccc(-c2nc3cc(-c4ccc5[nH]c(-c6ccc(C(=O)NCCN(C(C)C)C(C)C)cc6)nc5c4)ccc3[nH]2)cc1)C(C)C` [Compound 113], for which it took 12.6 µM to reach half-maximal inhibition in assay [1] (Table L) (IC50). For the same molecule, in assay [2], the “MBNL1 % splicing rescue at 1 μM” value came out at 7.9% and the “MBNL1 % splicing rescue at 10 μM” value was found to be 45.3%.

On to `O=C(NCCN1CCCC1)c1ccc(-c2nc3cc(-c4ccc5[nH]c(-c6ccc(C(=O)NCCN7CCCC7)cc6)nc5c4)ccc3[nH]2)cc1` [Compound 115], for which, in assay [1] (Table L), the IC50 was found to be 7.1 µM. The “MBNL1 % splicing rescue at 10 μM” value in assay [2] stood at 57.5%.

In the case of `O=C(NCCN1CCCCC1)c1ccc(-c2nc3cc(-c4ccc5[nH]c(-c6ccc(C(=O)NCCN7CCCCC7)cc6)nc5c4)ccc3[nH]2)cc1` [Compound 116], the IC50 in assay [1] (Table L) was found to be 5.3 µM. Also, in assay [2], the “MBNL1 % splicing rescue at 10 μM” value is listed as 74.7%.

`O=C(NCCN1CCCCC1)c1ccc2nc(-c3ccc(-c4nc5ccc(C(=O)NCCN6CCNCC6)cc5[nH]4)cc3)[nH]c2c1` [Compound 126, N-(2-(piperazin-1-yl)ethyl)-2-(4-(6-((2-(piperidin-1-yl)ethyl)carbamoyl)-1H-benzo[d]imidazol-2-yl)phenyl)-1H-benzo[d]imidazole-6-carboxamide] yielded a half-inhibitory concentration (IC50) in assay [1] (Table L) of 9.5 µM. In assay [2], the “MBNL1 % splicing rescue at 1 μM” value is reported as 16.6% and the “MBNL1 % splicing rescue at 10 μM” value stood at 29.6%.

As for `O=C(NCCN1CCC(O)CC1)c1ccc2[nH]c(-c3ccc(-c4nc5ccc(C(=O)NCCN6CCC(O)CC6)cc5[nH]4)cc3)nc2c1` [Compound 146], the IC50 in assay [1] (Table L) was determined as 15.8 µM. Moreover, in assay [2], the “MBNL1 % splicing rescue at 1 μM” value was 0.8% and the “MBNL1 % splicing rescue at 10 μM” value is recorded as 7.1%.

As for `CN(C)CCNC(=O)c1ccc2nc(-c3ccc(-c4nc5ccc(NC6=NCCN6C6=NCCN6)cc5[nH]4)cc3)[nH]c2c1` [Compound 148], in assay [1] (Table L), half-maximal inhibition (IC50) required 7.4 µM. Moreover, the “MBNL1 % splicing rescue at 10 μM” value in assay [2] is 1.7%.

The molecule `CN(C)CCNC(=O)c1ccc2nc(-c3ccc(-c4nc5ccc(NC6=NCCN6)cc5[nH]4)cc3)[nH]c2c1` [Compound 149] returned a half-maximal inhibitory concentration (IC50) in assay [1] (Table L) of 6.1 µM. Also, the “MBNL1 % splicing rescue at 10 μM” value in assay [2] is −1.1%.

With `c1cc(-c2nc3ccc(N4CCNCC4)cc3[nH]2)ccc1-c1nc2ccc(N3CCNCC3)cc2[nH]1` [Compound 150], the IC50 in assay [1] (Table L) is 29.6 µM. Also, in assay [2], the “MBNL1 % splicing rescue at 10 μM” value turned out to be 41.0%.

The molecule `Nc1ccc(-c2nc3cc(-c4ccc5[nH]c(-c6ccc(NC7=NCCN7C7=NCCN7)cc6)nc5c4)ccc3[nH]2)cc1` [Compound 160] came in with a half-maximal inhibitory concentration (IC50) in assay [1] (Table L) of 19.2 µM. Further, the “MBNL1 % splicing rescue at 10 μM” value in assay [2] is 63.0%.

`CN(C)CCCOc1ccc2nc(-c3ccc(-c4ccc(-c5nc6ccc(OCCCN(C)C)cc6[nH]5)cc4)cc3)[nH]c2c1` [Compound 170] yielded an IC50 in assay [1] (Table M) of 6.14 µM. Besides, in assay [2], the “MBNL1 % splicing rescue at 1 μM” value was 24.6% and the “MBNL1 % splicing rescue at 10 μM” value was 85.5%.

As for `CN(C)CCCOc1ccc2nc(-c3ccc(-c4nc5ccc(NC6=NCCN6C6=NCCN6)cc5[nH]4)cc3)[nH]c2c1` [Compound 171], half-maximal inhibition in assay [1] (Table M) (IC50) required 9.66 µM. Further, in assay [2], the “MBNL1 % splicing rescue at 1 μM” value is recorded as 11.5% and the “MBNL1 % splicing rescue at 10 μM” value was found to be 7.8%.

Turning to `[N-]=[N+]=NCCN1CCN(CCNC(=O)c2ccc3nc(-c4ccc(-c5nc6ccc(C(=O)NCCN7CCCCC7)cc6[nH]5)cc4)[nH]c3c2)CC1` [Compound 172, N-(2-(4-(2-azidoethyl)piperazin-1-yl)ethyl)-2-(4-(6-((2-(piperidin-1-yl)ethyl)carbamoyl)-1H-benzo[d]imidazol-2-yl)phenyl)-1H-benzo[d]imidazole-6-carboxamide], the IC50 in assay [1] (Table M) amounted to 28.3 µM. Also, in assay [2], the “MBNL1 % splicing rescue at 1 μM” value was 22.1% and the “MBNL1 % splicing rescue at 10 μM” value is recorded as 14.2%.

For `O=C(NCCN1CCCCC1)c1ccc2nc(-c3ccc(-c4nc5ccc(C(=O)NCCN6CCCCC6)cc5[nH]4)c([N+](=O)[O-])c3)[nH]c2c1` [Compound 173, 2,2′-(2-nitro-1,4-phenylene)bis(N-(2-(piperidin-1-yl)ethyl)-1H-benzo[d]imidazole-6-carboxamide)], the half-inhibitory concentration (IC50) in assay [1] (Table M) came to 22 µM. In addition, in assay [2], the “MBNL1 % splicing rescue at 1 μM” value is 1.5% and the “MBNL1 % splicing rescue at 10 μM” value is on record as 23.1%.

As for `O=C(NCCN1CCCCC1)c1ccc2nc(-c3ccc(-c4nc5ccc(C(=O)NCCN6CCCCC6)cc5[nH]4)c(F)c3)[nH]c2c1` [Compound 174], the IC50 in assay [1] (Table M) amounted to 4.32 µM. Besides, in assay [2], the “MBNL1 % splicing rescue at 1 μM” value was 5.2% and the “MBNL1 % splicing rescue at 10 μM” value was 1.9%.

`Nc1cc(-c2nc3ccc(C(=O)NCCN4CCCCC4)cc3[nH]2)ccc1-c1nc2ccc(C(=O)NCCN3CCCCC3)cc2[nH]1` [Compound 176, 2,2′-(2-amino-1,4-phenylene)bis(N-(2-(piperidin-1-yl)ethyl)-1H-benzo[d]imidazole-6-carboxamide)] had a half-inhibitory concentration (IC50) in assay [1] (Table M) of 5.52 µM. Further, the “MBNL1 % splicing rescue at 10 μM” value in assay [2] was −5.0%.

In the case of `NCCN1CCN(CCNC(=O)c2ccc3nc(-c4ccc(-c5nc6ccc(C(=O)NCCN7CCCCC7)cc6[nH]5)cc4)[nH]c3c2)CC1` [Compound 185, N-(2-(4-(2-aminoethyl)piperazin-1-yl)ethyl)-2-(4-(6-((2-(piperidin-1-yl)ethyl)carbamoyl)-1H-benzo[d]imidazol-2-yl)phenyl)-1H-benzo[d]imidazole-6-carboxamide], the IC50 in assay [1] (Table M) worked out at 8.13 µM. In assay [2], the “MBNL1 % splicing rescue at 10 μM” value worked out at 39.2%.

As for `CN(C)CCCCCOc1ccc2nc(-c3ccc(-c4nc5ccc(OCCCCCN(C)C)cc5[nH]4)cc3)[nH]c2c1` [Compound 192], the IC50 in assay [1] (Table M) came out at 12.9 µM. In addition, the “MBNL1 % splicing rescue at 10 μM” value in assay [2] was found to be 111.7%.

With `NCCCOc1ccc2nc(-c3ccc(-c4nc5ccc(OCCCN)cc5[nH]4)cc3)[nH]c2c1` [Compound 201, 3,3′-((1,4-phenylenebis(1H-benzo[d]imidazole-2,6-diyl))bis(oxy))bis(propan-1-amine)], the concentration for half-maximal inhibition (IC50) in assay [1] (Table M) is 16.4 µM. Besides, the “MBNL1 % splicing rescue at 10 μM” value in assay [2] is −13.2%.

In assay [1] (Table M), `CN(C)CCCS(=O)(=O)c1ccc2[nH]c(-c3ccc(-c4nc5cc(S(=O)(=O)CCCN(C)C)ccc5[nH]4)cc3)nc2c1` [Compound 202, 3,3′-(2,2′-(1,4-phenylene)bis(1H-benzo[d]imidazole-6,6′-sulfonyl))bis(N,N-dimethylpropan-1-amine)] gave an IC50 of 42 µM. For the same molecule, in assay [2], the “MBNL1 % splicing rescue at 10 μM” value was determined as 34.0%.

Broadly, the IC50 is the concentration at which inhibition is half-maximal.
